# Test results: PMC11990191, “Pharmacochemical Studies of Synthesized Coumarin–Isoxazole–Pyridine Hybrids” (Molecules, 2025)
# pIC50: −log10 of the molar value.
# Molecular target: T1, soybean lipoxygenase (sLOX) (Glycine max, UniProt P08170)
# T1 construct: gene LOX1.1
# T1 sequence (P08170 1-839): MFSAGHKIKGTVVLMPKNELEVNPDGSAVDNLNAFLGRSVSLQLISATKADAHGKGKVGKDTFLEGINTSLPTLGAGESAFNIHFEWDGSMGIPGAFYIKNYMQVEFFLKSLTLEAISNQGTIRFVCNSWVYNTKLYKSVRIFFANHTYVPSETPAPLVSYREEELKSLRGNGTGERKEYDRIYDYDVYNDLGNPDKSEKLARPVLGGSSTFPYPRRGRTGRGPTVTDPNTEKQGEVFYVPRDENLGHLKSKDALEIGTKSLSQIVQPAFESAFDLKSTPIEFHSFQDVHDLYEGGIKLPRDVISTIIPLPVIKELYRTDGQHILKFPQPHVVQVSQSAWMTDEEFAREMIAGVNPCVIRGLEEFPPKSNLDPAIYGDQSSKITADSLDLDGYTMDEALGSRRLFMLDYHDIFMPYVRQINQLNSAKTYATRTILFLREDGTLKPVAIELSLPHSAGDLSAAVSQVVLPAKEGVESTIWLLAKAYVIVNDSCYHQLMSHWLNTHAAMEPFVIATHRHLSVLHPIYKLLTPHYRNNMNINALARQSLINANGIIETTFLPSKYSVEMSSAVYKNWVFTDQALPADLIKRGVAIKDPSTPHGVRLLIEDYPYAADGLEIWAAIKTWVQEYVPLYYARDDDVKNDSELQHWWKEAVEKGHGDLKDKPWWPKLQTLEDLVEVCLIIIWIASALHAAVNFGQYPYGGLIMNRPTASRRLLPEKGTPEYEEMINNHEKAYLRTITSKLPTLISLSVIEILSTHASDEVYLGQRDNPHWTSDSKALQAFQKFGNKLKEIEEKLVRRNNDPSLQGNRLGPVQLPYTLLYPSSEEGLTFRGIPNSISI
# Assay: UV absorbance enzyme assay at […] nm, sodium linoleate substrate, pH […]
# Format: biochemical
# Settings: read-out: LOX(%)/ IC50
row,SMILES,pIC50
1,"O=c1ccc2ccc(OCc3cc(-c4cccnc4)no3)cc2o1 [7a, 7-((3-(Pyridin-3-yl)isoxazol-5-yl)methoxy)-2H-chromen-2-one]",5.00
2,"O=c1cc(OCc2cc(-c3ccncc3)no2)c2ccccc2o1 [13a, 4-((3-(Pyridin-4-yl)isoxazol-5-yl)methoxy)-2H-chromen-2-one]",5.30
